According to ChEMBL document CHEMBL3992514, “Synthesis, biological characterisation and structure activity relationships of aromatic bisamidines active against Plasmodium falciparum” (Eur J Med Chem, 2017):

How the values were obtained:
HEK293 = assay: Cytotoxicity against HEK293 cells assessed as decrease in cell viability after 24 hrs by Alamar blue assay; format: ADME, cell-based; settings: Homo sapiens, HEK293, 24 h
Plasmodium falciparum [1] = assay: Antiparasitic activity against drug-sensitive Plasmodium falciparum 3D7 infected in erythrocytes assessed as growth inhibition after 48 hrs by SYBR green 1 dye-based flow cytometry; format: functional, cell-based; settings: 3D7, 48 h
Plasmodium falciparum [2] = assay: Antiparasitic activity against drug-resistant Plasmodium falciparum Dd2 infected in erythrocytes assessed as growth inhibition after 48 hrs by [3H]-hypoxanthine incorporation assay; format: functional, cell-based
[3] = Selectivity index, ratio of IC50 for HEK293 cells to IC50 for drug-sensitive Plasmodium falciparum 3D7 infected in erythrocytes; settings: human
[4] = Selectivity index, ratio of IC50 for HEK293 cells to IC50 for drug-resistant Plasmodium falciparum Dd2 infected in erythrocytes; settings: human
[5] = Cmax in Sprague-Dawley albino rat at 1 mg/kg, po; format: ADME, organism-based; set-up: dose 1 mg/kg, route oral; settings: in vivo
[6] = Half life in Sprague-Dawley albino rat at 1 mg/kg, po; format: ADME, organism-based; settings: in vivo
[7] = Oral bioavailability in Sprague-Dawley albino rat at 1 mg/kg; format: ADME, organism-based; settings: in vivo

Row | SMILES | IC50 (HEK293) | IC50 (Plasmodium falciparum [1]) | IC50 (Plasmodium falciparum [2]) | selectivity ratio [3] | selectivity ratio [4] | Cmax [5] | half-life [6] | bioavailability [7]
1 | N=C(N)c1ccc(NC(=O)Nc2ccc(C(=N)N)cc2)cc1 | 266 µM | 0.046 µM | 0.21 µM | 5780 | – | – | – | –
2 | CNC(=O)Cc1cc(-c2ccc(C(=N)N)cc2)oc1-c1ccc(C(=N)N)cc1 | > 50 µM | 5.41 µM | 3.07 µM | > 9 | > 16 | – | – | –
3 | CSCCNC(=O)Cc1cc(-c2ccc(C(=N)N)cc2)oc1-c1ccc(C(=N)N)cc1 | > 50 µM | 6.09 µM | 5.48 µM | > 8 | > 10 | – | – | –
4 | N=C(N)c1ccc(-c2cc(CC(=O)NCCN3CCOCC3)c(-c3ccc(C(=N)N)cc3)o2)cc1 | > 50 µM | > 10 µM | > 10 µM | – | – | – | – | –
5 | N=C(N)c1ccc(-c2cc(CC(=O)N3CCN(C(=O)c4ccccc4)CC3)c(-c3ccc(C(=N)N)cc3)o2)cc1 | > 50 µM | > 10 µM | > 10 µM | – | – | – | – | –
6 | N=C(N)c1ccc(-c2cc(CC(=O)NCCCc3ccccc3)c(-c3ccc(C(=N)N)cc3)o2)cc1 | > 50 µM | 0.77 µM | 1.67 µM | > 65 | > 30 | – | – | –
7 | N=C(N)c1ccc(-c2cc(CC(=O)N3CCN(C(c4ccc(F)cc4)c4ccc(F)cc4)CC3)c(-c3ccc(C(=N)N)cc3)o2)cc1 | > 50 µM | 1.7 µM | 6.63 µM | > 30 | > 8 | – | – | –
8 | N=C(N)c1ccc(-c2cc(CC(=O)NCCC(c3ccccc3)c3ccccc3)c(-c3ccc(C(=N)N)cc3)o2)cc1 | > 50 µM | 1.4 µM | 1.47 µM | > 36 | > 34 | – | – | –
9 | CSCCCNC(=O)Cc1cc(-c2ccc(C(=N)N)cc2)oc1-c1ccc(C(=N)N)cc1 | > 50 µM | 6.61 µM | 5.43 µM | > 7 | > 10 | – | – | –
10 | CO/N=[14C](/N)c1ccc(-c2ccc(-c3ccc(/[14C](N)=N\OC)cc3)o2)cc1 | – | – | – | – | – | 26.1 ng/mL | 54 min | 11%
11 | N=C(N)c1ccc(-c2cc(CC(=O)N3CCOCC3)c(-c3ccc(C(=N)N)cc3)o2)cc1 | > 50 µM | > 10 µM | > 10 µM | – | – | – | – | –
12 | CN(C)C(=O)Cc1cc(-c2ccc(C(=N)N)cc2)oc1-c1ccc(C(=N)N)cc1 | > 50 µM | 5.76 µM | 3.83 µM | > 8 | > 13 | – | – | –
13 | CN(C)CCNC(=O)Cc1cc(-c2ccc(C(=N)N)cc2)oc1-c1ccc(C(=N)N)cc1 | > 50 µM | > 10 µM | > 10 µM | – | – | – | – | –
14 | N=C(N)c1ccc(-c2cc(CC(=O)N3CCCCC3)c(-c3ccc(C(=N)N)cc3)o2)cc1 | > 50 µM | 5.13 µM | – | > 9 | – | – | – | –
15 | Cc1c(-c2ccc(C(=N)NC(C)C)cc2)oc(-c2ccc(C(=N)NC(C)C)cc2)c1C | 309 µM | 0.038 µM | 0.09 µM | 8130 | 3430 | – | – | –
16 | N=C(N)c1ccc(NC(=NCCc2ccccc2)Nc2ccc(C(=N)N)cc2)cc1 | > 50 µM | > 10 µM | > 10 µM | – | – | – | – | –
17 | N=C(N)c1ccc(-c2cc(CC(=O)NCC(c3ccccc3)c3ccccc3)c(-c3ccc(C(=N)N)cc3)o2)cc1 | > 50 µM | 1.39 µM | 1.43 µM | > 36 | > 35 | – | – | –
18 | N=C(N)c1ccc(NC(=NCCN2CCCCC2)Nc2ccc(C(=N)N)cc2)cc1 | > 50 µM | > 10 µM | > 10 µM | – | – | – | – | –
19 | CCN(CC)CCNC(=O)Cc1cc(-c2ccc(C(=N)N)cc2)oc1-c1ccc(C(=N)N)cc1 | > 50 µM | > 10 µM | > 10 µM | – | – | – | – | –
20 | CCOCc1c(-c2ccc(C(=N)N)cc2)oc(-c2ccc(C(=N)N)cc2)c1COCC | > 50 µM | 1.19 µM | 0.85 µM | > 42 | > 59 | – | – | –
21 | Cc1c(-c2ccc(C(=N)NO)cc2)oc(-c2ccc(C(=N)NO)cc2)c1C | > 50 µM | > 1 µM | 7.15 µM | – | > 10 | – | – | –
22 | N=C(N)c1ccc(-c2cc(CC(=O)NCCN3CCCCC3)c(-c3ccc(C(=N)N)cc3)o2)cc1 | > 50 µM | > 10 µM | > 10 µM | – | – | – | – | –
23 | CCNC(=N)c1ccc(-c2oc(-c3ccc(C(=N)NCC)cc3)c(C)c2C)cc1 | 33.3 µM | 0.02 µM | 0.03 µM | 1660 | 1110 | – | – | –
